In patent US20170174633A1 (RESEARCH TRIANGLE INSTITUTE, priority 2014, published 2017):
Values joined by “and” are separate entries in the source; they are usually repeats but may differ in a detail not shown here. Equal entries are not always repeated. Where two headings read alike, the source gives them in different places.

Key:
rNTS2 receptor [1] = biological target: T1, rNTS2 receptor (Rattus norvegicus, UniProt Q63384); assay: Calcium mobilization assay for NTS2 receptor (FLIPR Tetra); type: cell-based; details: FLIPR assay, ± SEM; for NTS2 Emax % of 5b: calcium release relative to 5b; for EC50: compound induced calcium release, CHO-kl-rNTS2 cells
T1 construct: expressed in transfected cells
T1 sequence (Q63384 1-416): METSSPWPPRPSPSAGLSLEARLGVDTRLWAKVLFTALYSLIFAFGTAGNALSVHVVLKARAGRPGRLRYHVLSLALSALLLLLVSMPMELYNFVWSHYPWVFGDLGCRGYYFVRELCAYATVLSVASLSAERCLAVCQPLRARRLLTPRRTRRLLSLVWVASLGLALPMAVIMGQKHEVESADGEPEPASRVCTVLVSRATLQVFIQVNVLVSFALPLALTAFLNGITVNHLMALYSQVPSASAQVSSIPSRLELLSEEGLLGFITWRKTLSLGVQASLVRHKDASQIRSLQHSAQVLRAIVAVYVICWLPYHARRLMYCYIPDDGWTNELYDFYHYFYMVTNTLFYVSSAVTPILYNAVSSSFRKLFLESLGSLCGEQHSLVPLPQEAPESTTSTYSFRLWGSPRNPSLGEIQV
Protocol: (§1) The binding affinities of the test compounds for the rNTS1 and rNTS2 receptors listed in Tables 1 through 4 were determined using previously reported competitive binding assays^49. […] The cells used in the binding assay were CHO-kl cells (American Type Culture Collection) engineered to over-express either the rNTS1 or rNTS2 receptor. Measures of functional agonism and antagonism were obtained by measuring changes in intensity of a calcium-sensitive fluorescent dye as an indirect measure of changes in internal calcium concentrations. These measurements were performed using a FLIPR Tetra (NTS2) or a FlexStation II plate reader for NTS1 (Molecular Devices) and were analyzed using GraphPad Prism software.
CHO-kl-rNTS2 cells were maintained in DMEM/F12 supplemented with 10% FBS, pen/strep, 100 μg/ml normocin, and 400 μg/ml geneticin. For calcium mobilization assays, cells were plated at 25,000 cells/well in black, clear-bottom 96-well plates 24 hrs before the assay and incubated at 37° C., 5% CO2. 100 μl reconstituted Calcium 5 dye (Molecular Devices, diluted 1:20 in assay buffer (1×HBSS, 20 mM HEPES, 2.5 mM Probenicid, pH 7.4)) was added per well and plates were incubated for 45 min at 37° C., 5% CO2. […] Full-log serial dilutions of the test compounds were made at 10× the desired final concentration in 1% DMSO assay buffer and warmed to 37° C. After the pre-treatment incubation, fluorescence intensity was measured on a FLIPR Tetra fluorometric imaging plate reader (Molecular Devices). Relative Fluorescence Units (RFUs) were measured every second for 100 seconds (14 readings before compound addition to establish baseline fluorescence, 85 after) Exposure time 0.53 s, Gain=2000, Excitation intensity=30%, Gate open=10%. For antagonist assays, 1/10 volume of 10×concentration of the test compound dilutions in 10% DMSO in assay buffer was added to cells in lieu of the 10% DMSO only in assay buffer for the pre-treatment.
(§2) To determine EC50, IC50, and Ke values, data were fit to a three-parameter logistic equation using GraphPad Prism software. Ki values for radioligand binding assays were determined from ICso values using the equation of Cheng and Prusoff. All data are from at least three independent experiments run in duplicate wells.

rNTS2 receptor [2] = biological target: T1, rNTS2 receptor; assay: 125I-NT competitive binding assay, whole CHO-kl cells over-expressing rNTS2; details: for Ki: competition with 125I-NT, ± SEM, read-out: 125I-NT Binding NTS2 Ki; for NTS2/NTS1 selectivity ratio: ratio of 125I-NT binding Ki at NTS1 and NTS2; for selectivity for NTS2 (versus NTS1): relative binding affinities at NTS1 and NTS2
Protocol: as §1
Briefly, cells were plated at 100,000 cells/well in 24-well plates in complete DMEM/F12 medium supplemented with 10% fetal bovine serum, 100 units of penicillin/mL, 100 μg of streptomycin/mL, 0.1 mg/mL of normocin, and 250 μg/mL geneticin. Cells were incubated at 37° C. with 5% CO2 and 95% humidity for 48 hrs. […] Cells were washed twice in Earle's buffer, extracted in 1 ml 0.1N NaOH and counted in a Packard Cobra II Gamma Counter for 1 minute.
as §2

rNTS1 receptor [3] = biological target: T2, rNTS1 receptor (Rattus norvegicus, UniProt P20789); assay: 125I-NT competitive binding assay, whole CHO-kl cells over-expressing rNTS1; details: competition with 125I-NT, read-out: NTS1 Ki
T2 construct: expressed in transfected cells
T2 sequence (P20789 whole entry): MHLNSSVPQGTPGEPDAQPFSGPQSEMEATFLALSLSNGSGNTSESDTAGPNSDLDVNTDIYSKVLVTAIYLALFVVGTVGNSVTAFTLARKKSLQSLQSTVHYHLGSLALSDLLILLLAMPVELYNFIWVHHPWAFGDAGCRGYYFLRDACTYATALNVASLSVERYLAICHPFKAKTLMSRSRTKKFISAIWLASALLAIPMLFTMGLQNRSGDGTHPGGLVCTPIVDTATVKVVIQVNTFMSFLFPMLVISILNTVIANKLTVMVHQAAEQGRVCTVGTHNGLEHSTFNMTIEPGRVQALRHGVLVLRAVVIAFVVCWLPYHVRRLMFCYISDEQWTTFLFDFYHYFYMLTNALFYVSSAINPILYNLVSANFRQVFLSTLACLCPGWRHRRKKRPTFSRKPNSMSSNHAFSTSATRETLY
Protocol: The binding affinities of the test compounds for the rNTS1 and rNTS2 receptors listed in Tables 1 through 4 were determined using previously reported competitive binding assays^49. The NTS1 and 2 receptors were labeled using ^125I-NT. The cells used in the binding assay were CHO-kl cells (American Type Culture Collection) engineered to over-express either the rNTS1 or rNTS2 receptor. Measures of functional agonism and antagonism were obtained by measuring changes in intensity of a calcium-sensitive fluorescent dye as an indirect measure of changes in internal calcium concentrations. These measurements were performed using a FLIPR Tetra (NTS2) or a FlexStation II plate reader for NTS1 (Molecular Devices) and were analyzed using GraphPad Prism software. Antagonism was measured as inhibition of NT-induced calcium release (NTS1) or inhibition of SR142948 (5b)-induced calcium release (NTS2).
Briefly, cells were plated at 100,000 cells/well in 24-well plates in complete DMEM/F12 medium supplemented with 10% fetal bovine serum, 100 units of penicillin/mL, 100 μg of streptomycin/mL, 0.1 mg/mL of normocin, and 250 μg/mL geneticin. Cells were incubated at 37° C. with 5% CO2 and 95% humidity for 48 hrs. Cells were then equilibrated for 10 minutes in Earle's buffer (130 mM NaCl, 5 mM KCl, 1.8 mM CaCl2, 0.8 mM MgCl2, and 20 mM HEPES, pH 7.4) supplemented with 0.1% BSA and 0.1% glucose, and then incubated with or without 10 nM test compound in 0.1 nM ^125I-NT at 37° C. for 30 min. Cells were washed twice in Earle's buffer, extracted in 1 ml 0.1N NaOH and counted in a Packard Cobra II Gamma Counter for 1 minute.
as §2

rNTS1 receptor [4] = biological target: T2, rNTS1 receptor; assay: Calcium mobilization assay for NTS1 receptor (FLIPR assay, FlexStation II); type: cell-based; details: for Kb: antagonism of NT induced calcium release, ± SEM, read-out: NTS1 Ke
Protocol: as §1
CHO-kl-rNTS1 cells were maintained in DMEM/F12 medium supplemented with 10% fetal bovine serum (Gibco), 100 U/ml penicillin/100 ug/ml streptomycin, 100 ug/ml normocin (Invivogen), and 250 ug/ml geneticin. For calcium mobilization assays, cells were plated at 30,000 cells/well in black, clear-bottom 96-well plates 24 hrs before the assay and incubated at 37° C., 5% CO2. Prior to the assay, Calcium 5 dye (Molecular Devices) was reconstituted according to manufacturer instructions. The reconstituted dye was diluted 1:40 in assay buffer (lx HBSS, 20 mM HEPES, and 2.5 mM Probenicid (Sigma), pH 7.4). Growth media was removed and 200 ul of this diluted dye was added to each well. Plates were incubated for 45 min at 37° C., 5% CO2 after dye addition. […] Full-log serial dilutions of the test compounds were made at 10× the desired final concentration in 1% DMSO assay buffer and warmed to 37° C. After the pre-treatment incubation, fluorescence intensity was measured on a FlexStation II fluorometric imaging plate reader (Molecular Devices). Relative fluorescence units (RFU) were measured before (20 readings) and after (40 readings) the agonist compound addition for a total 60 second read time (Excitation=485 nm, Emission=525 nm, cutoff=515 nm). For antagonist assays, cells were treated with Calcium dye for 45 min at 37° C., 5% CO2 as with the agonist assays. Then the test antagonist compounds were added in 1% DMSO in assay buffer and the plate was incubated for 15 min at 37° C., 5% CO2.
as §2

NTS2 versus NTS1 = details: literature report; cited from earlier work
[5] = literature report; cited from earlier work

COc1ccccc1-c1cc(C(=O)NC2(C(=O)O)CCCCC2)nn1-c1ccc(F)cc1 [7b, 1-({[1-(4-Fluorophenyl)-5-(2-methoxyphenyl)-1H-pyrazol-3-yl]carbonyl}amino)cyclo-hexane carboxylic Acid]
NTS2 Emax % of 5b (rNTS2 receptor [1]): 7 ± 2 % of 5b
EC50 (rNTS2 receptor [1]): 12 ± 6 nM
Ki (rNTS2 receptor [2]): 153 ± 10 nM
NTS2/NTS1 selectivity ratio (rNTS2 receptor [2]): 161
selectivity for NTS2 (versus NTS1) (rNTS2 receptor [2]): 161 fold
Ki (rNTS1 receptor [3]; bound given in uM): > 25 µM

COc1cccc(OC)c1-c1cc(C(=O)NC2(C(=O)O)CCCCC2)nn1-c1cccc2ccccc12 [26b, 1-({[5-(2,6-Dimethoxyphenyl)-1-naphthalen-1-yl-1H-pyrazol-3-yl]carbonyl}amino)cyclohexane-carboxylic Acid]
Kb (rNTS1 receptor [4]): 230 ± 79 nM
NTS2 Emax % of 5b (rNTS2 receptor [1]): 35 % of 5b and 35 ± 1 % of 5b
EC50 (rNTS2 receptor [1]): 18 ± 1.6 nM
Ki (rNTS2 receptor [2]): 116 ± 39 nM

COc1ccccc1-c1cc(C(=O)NC2(C(=O)O)CCCCC2)nn1-c1cccc2ccccc12 [27b, 1-({[5-(2-Methoxyphenyl)-1-naphthalen-1-yl-1H-pyrazol-3-yl]carbonyl}amino)cyclohexane-carboxylic Acid]
Kb (rNTS1 receptor [4]): 7380 ± 1130 nM
NTS2 Emax % of 5b (rNTS2 receptor [1]): 18 % of 5b and 18 ± 2 % of 5b
EC50 (rNTS2 receptor [1]): 108 ± 8 nM
Ki (rNTS2 receptor [2]): 694 ± 178 nM

COc1cccc(OC)c1-c1cc(C(=O)N[C@H](C(=O)O)C2CCCCC2)nn1-c1ccc(F)cc1 [28b, (2S)-Cyclohexyl({[5-(2,6-dimethoxyphenyl)-1-(4-fluorophenyl)-1H-pyrazol-3-yl]carbonyl}amino)ethanoic Acid]
Kb (rNTS1 receptor [4]): 3340 ± 549 nM
NTS2 Emax % of 5b (rNTS2 receptor [1]): 22 ± 5 % of 5b
EC50 (rNTS2 receptor [1]): 271 ± 24 nM
Ki (rNTS2 receptor [2]): 622 ± 245 nM

COc1cccc(OC)c1-c1cc(C(=O)NC2(C(=O)O)CCCCC2)nn1-c1ccc(F)cc1 [29b, 1-({[5-(2,6-Dimethoxyphenyl)-1-(4-fluorophenyl)-1H-pyrazol-3-yl]carbonyl}amino)cyclohexane-carboxylic Acid]
NTS2 Emax % of 5b (rNTS2 receptor [1]): 12 ± 0.5 % of 5b
EC50 (rNTS2 receptor [1]): 19 ± 3 nM
Ki (rNTS2 receptor [2]): 140 ± 29 nM
NTS2/NTS1 selectivity ratio (rNTS2 receptor [2]): 23
selectivity for NTS2 (versus NTS1) (rNTS2 receptor [2]): 23 fold
Ki (rNTS1 receptor [3]; ± SEM): 3.21 ± 0.879 µM

C[C@@H]1CN([C@H]2CC[C@](C#N)(c3ccc(F)cc3)CC2)CC[C@]1(C(=O)O)c1ccccc1 [compound 6, Levocabastine, reference compound]
activity in NTS1 FLIPR assay (rNTS1 receptor [4]; agonist and antagonist mode versus NT): neither agonist nor antagonist activity
NTS2 Emax % of 5b (rNTS2 receptor [1]): 16 % of 5b and 16 ± 3 % of 5b
EC50 (rNTS2 receptor [1]): 28 nM
Ki (rNTS2 receptor [2]): 33 nM

COc1cccc(OC)c1-c1cc(C(=O)NC2(C(=O)O)C3CC4CC(C3)CC2C4)nn1-c1ccc(F)cc1 (stereo not drawn) [compound 30, 2-({[5-(2,6-Dimethoxyphenyl)-1-(4-fluorophenyl)-1H-pyrazol-3-yl]carbonyl}amino) tricyclo[3.3.1.13,7]decane-2-carboxylic Acid]
Kb (rNTS1 receptor [4]): 191 ± 47 nM
NTS2 Emax % of 5b (rNTS2 receptor [1]): 34 % of 5b and 34 ± 5 % of 5b
EC50 (rNTS2 receptor [1]): 68 nM
Ki (rNTS2 receptor [2]): 110 ± 29 nM

COc1ccccc1-c1cc(C(=O)NC2(C(=O)O)C3CC4CC(C3)CC2C4)nn1-c1ccc(F)cc1 (stereo not drawn) [compound 31, 2-({[1-(4-fluorophenyl)-5-(2-methoxyphenyl)-1H-pyrazol-3-yl]carbonyl}amino)tricyclo[3.3.1.13,7]decane-2-carboxylic acid]
Kb (rNTS1 receptor [4]): 3810 ± 422 nM
NTS2 Emax % of 5b (rNTS2 receptor [1]): 42 ± 12 % of 5b
EC50 (rNTS2 receptor [1]): 138 ± 55 nM
Ki (rNTS2 receptor [2]): 23 ± 5 nM
NTS2/NTS1 selectivity ratio (rNTS2 receptor [2]): 188
Ki (rNTS1 receptor [3]; ± SEM): 4.33 ± 0.656 µM

(N^αMe)Arg-Lys-Pro-D-3,1-Nal-tLeu-Leu [compound 3]
selectivity for NTS2 (versus NTS1) (NTS2 versus NTS1): > 100 fold

(N^αMe)Arg-Lys-Pro-N-homo-Tyr-Ile-Leu [4b]
selectivity for NTS2 (versus NTS1) (NTS2 versus NTS1): 22,000 fold
plasma stability [5]: excellent plasma stability

Arg-Arg-Pro-N-homo-Tyr-Ile-Leu [4a]
selectivity for NTS2 (versus NTS1) (NTS2 versus NTS1): 12,000 fold
